Results as given in ChEMBL document CHEMBL4024712, “Synthesis, stability and mechanistic studies of potent anticryptococcal hexapeptides” (Eur J Med Chem, 2017).
In brackets after ≈: the same amount, converted by molar mass. Activity calls are given as the source filed them. The rule behind the calls is not given here. Non-standard residues stand in square brackets, D forms with d. Residues, ends and D or L forms follow the SMILES beside them. Ala(9-anthryl) = N[C@@H](Cc1c2ccccc2cc2ccccc12)C(=O)O; His(τ-Bzl) = N[C@@H](Cc1cn(Cc2ccccc2)cn1)C(=O)O; Phe(4-Me) = Cc1ccc(C[C@H](N)C(=O)O)cc1; Bta = N[C@@H](Cc1csc2ccccc12)C(=O)O; Cha = N[C@@H](CC1CCCCC1)C(=O)O; Orn = NCCC[C@H](N)C(=O)O

Tests used:
[1] = system: Staphylococcus aureus; experiment: Anti-bacterial activity against Staphylococcus aureus ATCC 29213 by CLSI method; type: functional; details: Staphylococcus aureus, ATCC 29213
[2] = system: Nakaseomyces glabratus; experiment: Antifungal activity against Candida glabrata ATCC 90030 after 18 to 24 hrs by Alamar blue assay; type: functional; details: for MIC: Nakaseomyces glabratus, ATCC 90030
[3] = system: Candida albicans; experiment: Antifungal activity against Candida albicans ATCC 90028 after 18 to 24 hrs by Alamar blue assay; type: functional
[4] = system: Staphylococcus aureus; experiment: Anti-bacterial activity against methicillin-resistant Staphylococcus aureus ATCC 33591 by CLSI method; type: functional; details: Staphylococcus aureus, ATCC 33591
[5] = system: Pichia kudriavzevii; experiment: Antifungal activity against Candida krusei ATCC 6258 after 18 to 24 hrs by Alamar blue assay; type: functional; details: Pichia kudriavzevii, ATCC 6258
[6] = system: Vero; experiment: Cytotoxicity against African green monkey Vero cells up to 10 ug/ml after 48 hrs by neutral red dye based assay; type: cell-based; details: chlorocebus sabaeus
[7] = system: Cryptococcus neoformans; experiment: Antifungal activity against Cryptococcus neoformans ATCC 90113 after 68 to 72 hrs by Alamar blue assay; type: functional
[8] = system: Aspergillus fumigatus; experiment: Antifungal activity against Aspergillus fumigatus ATCC 90906 after 68 to 72 hrs by Alamar blue assay; type: functional
[9] = system: Mycobacterium intracellulare; experiment: Bactericidal activity against Mycobacterium intracellulare ATCC 23068 after 68 to 72 hrs by Alamar blue assay; type: functional
[10] = system: Mycobacterium intracellulare; experiment: Anti-bacterial activity against Mycobacterium intracellulare ATCC 23068 after 68 to 72 hrs by Alamar blue assay; type: functional, cell-based
[11] = system: Pichia kudriavzevii; experiment: Fungicidal activity against Candida krusei ATCC 6258 after 18 to 24 hrs by Alamar blue assay; type: functional
[12] = system: Staphylococcus aureus; experiment: Bactericidal activity against Staphylococcus aureus ATCC 29213 by CLSI method; type: functional
[13] = system: Escherichia coli; experiment: Bactericidal activity against Escherichia coli ATCC 35218 by CLSI method; type: functional
[14] = system: Pseudomonas aeruginosa; experiment: Anti-bacterial activity against Pseudomonas aeruginosa ATCC 27853 by CLSI method; type: functional
[15] = system: Escherichia coli; experiment: Anti-bacterial activity against Escherichia coli ATCC 35218 by CLSI method; type: functional; details: for MIC: Escherichia coli, ATCC 35218
[16] = system: Candida albicans; experiment: Fungicidal activity against Candida albicans ATCC 90028 after 18 to 24 hrs by Alamar blue assay; type: functional
[17] = system: Staphylococcus aureus; experiment: Bactericidal activity against methicillin-resistant Staphylococcus aureus ATCC 33591 by CLSI method; type: functional
[18] = system: Cryptococcus neoformans; experiment: Fungicidal activity against Cryptococcus neoformans ATCC 90113 after 68 to 72 hrs by Alamar blue assay; type: functional
[19] = system: Lipid bilayer; experiment: Binding affinity to EYPC/cholesterol small unilamellar vesicles at 0.1 uM by tryptophan fluorescence quenching assay; type: ADME
[20] = Proteolytic stability assessed as trypsin (unknown origin)-mediated compound hydrolysis at compound to trypsin ratio of 0.5 to […] measured after 24 hrs by RP-HPLC method; type: ADME; details: human
[21] = system: Lipid bilayer; experiment: Binding affinity to EYPC/EYPG small unilamellar vesicles at 0.1 uM by tryptophan fluorescence quenching assay
[22] = system: Cryptococcus neoformans; experiment: Induction of cell lysis in Cryptococcus neoformans ATCC 90113 biofilm assessed as cytoplasm leakage at MIC after 1 hr by photungstic acid/ammonium molybdate/uranyl acetatebased scanning based transmission electron microscopic method; type: functional
[23] = system: Cryptococcus neoformans; experiment: Induction of cell lysis in Cryptococcus neoformans ATCC 90113 biofilm assessed as formation of holes at MIC after 1 hr by osmium tetroxide staining based scanning electron microscopic method; type: functional
[24] = Selectivity index ratio of cytotoxic concentration against African green monkey Vero cells to IC50 for Cryptococcus neoformans ATCC 90113; type: toxicity; details: read-out: Selectivity Index
[25] = system: Nakaseomyces glabratus; experiment: Fungicidal activity against Candida glabrata ATCC 90030 after 18 to 24 hrs by Alamar blue assay; type: functional

Row | Structure (SMILES) | MIC [1] [µg/mL] | IC50 [2] | IC50 [3] | MIC [4] [µg/mL] | MIC [5] [µg/mL] | Activity [6] | MIC [7] [µg/mL] | IC50 [8] | MBC [9] [µg/mL] | MFC [11] [µg/mL] | MBC [12] [µg/mL] | MBC [13] [µg/mL] | IC50 [14] | MIC [15] [µg/mL] | MFC [16] [µg/mL] | MBC [17] [µg/mL] | IC50 [10] | MFC [25] [µg/mL] | MIC [2] [µg/mL] | IC50 [15] | other results
1 | Cc1ccc(C[C@H](NC(=O)[C@@H](Cc2ccccc2)NC(=O)[C@@H](Cc2c[nH]c3ccccc23)NC(=O)[C@@H](N)CCCCN)C(=O)N[C@H](Cc2ccccc2)C(=O)N[C@@H](Cc2cn(Cc3ccccc3)cn2)C(N)=O)cc1 (H-K[dW][dF][Phe(4-Me)][dF][His(τ-Bzl)]-NH2) | 20 (≈ 19.7 µM) | Not Active | Not Active | 20 (≈ 19.7 µM) | 20 (≈ 19.7 µM) | Non-Toxic | 2.5 (≈ 2.46 µM) | Not Active | 20 (≈ 19.7 µM) | 20 (≈ 19.7 µM) | 20 (≈ 19.7 µM) | 20 (≈ 19.7 µM) | Not Active | 20 (≈ 19.7 µM) |  |  |  |  |  |  | MIC ([10]; Mycobacterium intracellulare, ATCC 23068): 20 µg/mL (≈ 19.7 µM)
2 | Cc1ccc(C[C@H](NC(=O)[C@@H](Cc2ccccc2)NC(=O)[C@@H](Cc2c[nH]c3ccccc23)NC(=O)[C@@H](N)CCCNC(=N)N)C(=O)N[C@H](Cc2ccccc2)C(=O)N[C@@H](Cc2cn(Cc3ccccc3)cn2)C(N)=O)cc1 (H-R[dW][dF][Phe(4-Me)][dF][His(τ-Bzl)]-NH2) |  | Not Active |  | 20 (≈ 19.2 µM) | 20 (≈ 19.2 µM) | Non-Toxic | 2.5 (≈ 2.4 µM) | Not Active | 10 (≈ 9.59 µM) |  | 20 (≈ 19.2 µM) | 20 (≈ 19.2 µM) | Not Active | 10 (≈ 9.59 µM) | 20 (≈ 19.2 µM) | 20 (≈ 19.2 µM) |  |  |  |  | MIC ([3]; Candida albicans, ATCC 90028): 20 µg/mL (≈ 19.2 µM); MFC [18]: 2.5 µg/mL (≈ 2.4 µM)
3 | CC[C@H](C)[C@H](NC(=O)[C@H](CC1CCCCC1)NC(=O)[C@H](Cc1c[nH]c2ccccc12)NC(=O)[C@@H](N)CCCN)C(=O)N[C@H](Cc1ccccc1)C(=O)N[C@@H](Cc1cn(Cc2ccccc2)cn1)C(N)=O (H-[Orn]W[Cha]I[dF][His(τ-Bzl)]-NH2) |  | Not Active | Not Active |  |  | Non-Toxic | 0.63 (≈ 0.657 µM) | Not Active |  | 10 (≈ 10.4 µM) |  |  | Not Active |  |  |  | Not Active |  |  |  | Activity [19]: Non-Toxic; Stability [20]: Stable; Activity [21]: Active; Activity [22]: Active; Activity [23]: Active; selectivity ratio [24]: 21 to 25
4 | CC[C@H](C)[C@H](NC(=O)[C@H](CC1CCCCC1)NC(=O)[C@@H](Cc1c[nH]c2ccccc12)NC(=O)[C@@H](N)CCCN)C(=O)N[C@@H](Cc1c2ccccc2cc2ccccc12)C(=O)N[C@@H](Cc1cn(Cc2ccccc2)cn1)C(N)=O (H-[Orn][dW][Cha]I[Ala(9-anthryl)][His(τ-Bzl)]-NH2) | 5 (≈ 4.72 µM) |  |  | 10 (≈ 9.45 µM) |  | Non-Toxic | 1.25 (≈ 1.18 µM) | Not Active |  | 10 (≈ 9.45 µM) |  |  | Not Active |  | 20 (≈ 18.9 µM) | 10 (≈ 9.45 µM) | Not Active | 20 (≈ 18.9 µM) | 20 (≈ 18.9 µM) | Not Active | 
5 | CC[C@H](C)[C@H](NC(=O)[C@H](CC1CCCCC1)NC(=O)[C@@H](Cc1c[nH]c2ccccc12)NC(=O)[C@@H](N)CCCN)C(=O)N[C@@H](Cc1csc2ccccc12)C(=O)N[C@@H](Cc1cn(Cc2ccccc2)cn1)C(N)=O (H-[Orn][dW][Cha]I[Bta][His(τ-Bzl)]-NH2) |  |  | Not Active |  |  | Non-Toxic | 1.25 (≈ 1.23 µM) | Not Active |  | 20 (≈ 19.7 µM) |  |  | Not Active |  |  |  | Not Active | 20 (≈ 19.7 µM) | 20 (≈ 19.7 µM) | Not Active | IC50 ([1]; read-out: IC50): 20 µg/mL (≈ 19.7 µM)
